Measurements reported in ChEMBL document CHEMBL3244296, “3-Aryl- and 3-hydroxy-3-aryloctahydropyrido[2,1-c][1,4]oxazines. Synthesis, stereochemistry, and central nervous system pharmacological actions” (J Med Chem, 1978).
The source made the active and inactive calls. No cut-off for these calls is given here.

Experiments:
[1] = tested on: Mus musculus; test: Anticonvulsant activity in mouse assessed as protection against subcutaneous metrazol-induced seizures at <= 300 mg/kg, ip; type: functional, organism-based; design: dose 300 mg/kg
[2] = tested on: Mus musculus; test: Anticonvulsant activity in ip dosed mouse assessed as time to reach peak effect; type: functional
[3] = tested on: Mus musculus; test: Neurotoxicity in ip dosed mouse assessed as time to reach peak effect by rotarod test; type: toxicity, organism-based; details: in vivo
[4] = Neurotoxicity in ip dosed mouse by rotarod test; type: toxicity, organism-based; details: in vivo
[5] = tested on: Mus musculus; test: Anticonvulsant activity in ip dosed mouse assessed as protection against maximal electroshock-induced seizures measured as lowest dose required for activity; type: functional; details: read-out: MED
[6] = tested on: Mus musculus; test: Reduction in spontaneous locomotor activity in mouse at 40 mg/kg, ip measured for 30 mins; type: functional, organism-based; design: dose 40 mg/kg
[7] = Toxicity in ip dosed mouse assessed as lethality; type: organism-based; details: in vivo
[8] = tested on: Mus musculus; test: Stimulation of spontaneous locomotor activity in mouse at 20 mg/kg, ip measured for 30 mins relative to control; type: functional
[9] = tested on: Rattus norvegicus; test: Anorexic activity in ip dosed Sprague-Dawley rat assessed as dose required to reduce food intake by 50%; type: functional
[10] = tested on: Rattus norvegicus; test: Toxicity in Sprague-Dawley rat assessed as lethality at 20 to 40 mg/kg, ip; type: organism-based; design: dose 20-40 mg/kg, route intraperitoneal; details: in vivo
[11] = tested on: Rattus norvegicus; test: Anorexic activity in Sprague-Dawley rat assessed as reduction in food intake at […], ip relative to control; type: functional; design: scale not given: the % may be the effect or the level left
[12] = tested on: Rattus norvegicus; test: Anorexic activity in Sprague-Dawley rat assessed as reduction in food intake at 10 to 40 mmol/kg, ip; type: functional, organism-based
[13] = tested on: Mus musculus; test: Anticonvulsant activity in mouse assessed as protection against maximal electroshock-induced seizures at <= 300 mg/kg, ip; type: functional, organism-based; design: dose 300 mg/kg
[14] = tested on: Mus musculus; test: Anticonvulsant activity in ip dosed mouse assessed as protection against maximal electroshock-induced seizures; type: functional
[15] = Protective index, ratio of TD50 for neurotoxicity in ip dosed mouse to ED50 for anticonvulsant activity in ip dosed mouse; type: toxicity, organism-based; details: in vivo, read-out: Ratio TD50/ED50
[16] = tested on: Mus musculus; test: Anticonvulsant activity in ip dosed mouse assessed as protection against subcutaneous metrazol-induced seizures; type: functional; details: read-out: MED
[17] = tested on: Rattus norvegicus; test: Anorexic activity in Sprague-Dawley rat assessed as reduction in food intake at 5 to 20 mmol/kg, ip; type: functional, organism-based
[18] = tested on: Mus musculus; test: Reduction in spontaneous locomotor activity in mouse at 20 mg/kg, ip measured for 30 mins relative to control; type: functional, organism-based; design: dose 20 mg/kg
[19] = tested on: Mus musculus; test: Reduction in spontaneous locomotor activity in mouse at 5 mg/kg, ip measured for 30 mins relative to control; type: functional; design: scale not given: the % may be the effect or the level left; details: route intraperitoneal

| SMILES | Activity [1] | minimal effective dose [5] | Activity [6] | also measured |
| --- | --- | --- | --- | --- |
| Cl.OC1(c2ccccc2C(F)(F)F)CN2CCCCC2CO1 (configuration not stated) | inactive | 30 mg/kg | Active | Time [2]: 0.5 h; Time [3]: 0.5 h; TD50 [4]: 547000 µmol/kg |
| CC(=O)Oc1cccc(C2CN3CCCCC3CO2)c1 (configuration not stated) |  |  | inactive |  |
| Cl.OC1(c2ccc(C(F)(F)F)cc2)CN2CCCCC2CO1 (configuration not stated) | inactive | 100 mg/kg | Active | Time [2]: 0.5 h; Time [3]: 0.5 h; LD50 [7]: 468000 µmol/kg; Activity [8]: Active |
| COc1ccc(C2CN3CCCCC3CO2)cc1OC (configuration not stated) |  |  | Active |  |
| CCNC(C)Cc1cccc(C(F)(F)F)c1.Cl (configuration not stated) [FENFLURAMINE HYDROCHLORIDE] |  |  |  | Activity [9]: 16.8 mmol/kg |
| COc1cccc(C2(O)CN3CCCCC3CO2)c1.Cl (configuration not stated) | inactive | 100 mg/kg | Active |  |
| Cl.Clc1ccc(C2CN3CCCCC3CO2)cc1 (configuration not stated) |  |  | Active | Activity [10]: Toxic; Activity [11]: 40%; Activity [12]: Active |
| COc1ccc(C2(O)CN3CCCCC3CO2)cc1 (configuration not stated) | inactive |  | Active | Activity [13]: inactive |
| OC1(c2ccc(Cl)cc2)CN2CCCCC2CO1 (configuration not stated) |  |  | Active | Activity [12]: inactive |
| O=[N+]([O-])c1ccc(C2(O)CN3CCCCC3CO2)cc1 (configuration not stated) |  |  | inactive |  |
| Cl.FC(F)(F)c1cccc(C2CN3CCCCC3CO2)c1 (configuration not stated) | inactive | 30 mg/kg | Active | Time [2]: 0.5 h; Time [3]: 0.5 h; ED50 [14]: 84600 µmol/kg; TD50 [4]: 263000 µmol/kg; Activity [12]: Active; Activity [9]: 55.9 mmol/kg; selectivity ratio [15]: 3.11 |
| Oc1ccc(C2CN3CCCCC3CO2)cc1 (configuration not stated) |  |  | Active |  |
| Cl.OC1(c2ccccc2)CN2CCCCC2CO1 (configuration not stated) | inactive | 100 mg/kg | Active |  |
| Cl.c1ccc(C2CN3CCCCC3CO2)cc1 (configuration not stated) | inactive | 100 mg/kg | Active | Activity [12]: inactive; Activity [9]: 108.4 mmol/kg |
| Cl.FC(F)(F)c1ccc(C2CN3CCCCC3CO2)cc1 (configuration not stated) |  | 30 mg/kg | Active | Time [2]: 0.5 h; Time [3]: 0.5 h; TD50 [4]: 408000 µmol/kg; minimal effective dose [16]: 300 mg/kg |
| CC(=O)Nc1ccc(C2CN3CCCCC3CO2)cc1 (configuration not stated) |  |  | Active |  |
| COc1cccc(C2CN3CCCCC3CO2)c1 (configuration not stated) |  |  | Active |  |

| SMILES | Activity [1] | minimal effective dose [5] | Activity [6] | also measured |
| --- | --- | --- | --- | --- |
| Brc1ccc(C2CN3CCCCC3CO2)cc1 (configuration not stated) |  |  | Active |  |
| Cc1ccc(C2(O)CN3CCCCC3CO2)cc1.Cl (configuration not stated) | inactive | 100 mg/kg | Active |  |
| Fc1ccc(C2CN3CCCCC3CO2)cc1 (configuration not stated) | inactive |  | Active | Activity [13]: inactive |
| Cl.OC1(c2cccc(C(F)(F)F)c2)CN2CCCCC2CO1 (configuration not stated) | inactive | 30 mg/kg | Active | Activity [17]: Active; Time [2]: 0.5 h; Time [3]: 0.5 h; ED50 [14]: 78700 µmol/kg; TD50 [4]: 218000 µmol/kg; Activity [9]: 29.6 mmol/kg; selectivity ratio [15]: 2.77 |
| OC1(c2ccc(Br)cc2)CN2CCCCC2CO1 (configuration not stated) |  |  | Active |  |
| Cc1ccc(C2CN3CCCCC3CO2)cc1 (configuration not stated) | inactive |  | Active | Activity [13]: inactive |
| COc1ccc(C2(O)CN3CCCCC3CO2)cc1OC.Cl (configuration not stated) |  |  | Active | minimal effective dose [16]: 100 mg/kg; Activity [13]: inactive |
| CC(=O)Oc1cccc(C2(O)CN3CCCCC3CO2)c1 (configuration not stated) |  |  | inactive |  |
| Oc1cccc(C2CN3CCCCC3CO2)c1 (configuration not stated) |  |  | inactive | Activity [18]: Active |
| Cl.OC1(c2ccc(F)cc2)CN2CCCCC2CO1 (configuration not stated) | inactive | 100 mg/kg | Active |  |
| COc1cc(C2CN3CCCCC3CO2)cc(OC)c1OC (configuration not stated) |  |  | Active |  |
| CCC1(c2ccccc2)C(=O)N=C([O-])NC1=O.[Na+] (configuration not stated) [PHENOBARBITAL SODIUM] |  |  |  | ED50 [14]: 85700 µmol/kg; TD50 [4]: 333000 µmol/kg; Activity ([8]; route intraperitoneal): 215%; selectivity ratio [15]: 3.88 |
| COc1cc(C2(O)CN3CCCCC3CO2)cc(OC)c1OC.Cl (configuration not stated) |  |  | Active | minimal effective dose [16]: 300 mg/kg; Activity [13]: inactive |
| Cl.FC(F)(F)c1ccccc1C1CN2CCCCC2CO1 (configuration not stated) |  | 30 mg/kg | Active | Time [2]: 0.5 h; Time [3]: 0.5 h; TD50 [4]: 716000 µmol/kg; minimal effective dose [16]: 300 mg/kg |
| COc1ccc(C2CN3CCCCC3CO2)cc1 (configuration not stated) |  |  | Active |  |
| CN(C)CCCN1c2ccccc2Sc2ccc(Cl)cc21.Cl [CHLORPROMAZINE HYDROCHLORIDE] |  |  |  | Activity [19]: 83.6% |
